Literature values as cited in PMC10713630, “Elucidation of the structural basis for ligand binding and translocation in conserved insect odorant receptor co-receptors” (Nature Communications, 2023).

Columns and labels:
[1] = test system: AgamOrco/AgamOR65; details: cited from earlier work
[2] = test system: MhraOR1 G169A; parameters: method as in Del Marmol et al. 3; details: ref Del Marmol et al. 3; cited from earlier work
[3] = test system: MhraOR5; parameters: method as in PMID 34349260; details: cited from earlier work
[4] = test system: MhraOR5 M209V; parameters: method as in Del Marmol et al. 3; details: ref Del Marmol et al. 3; cited from earlier work

Structure (SMILES)	EC50 ([1]; AgamOrco/AgamOR65, ref Tailor et al. 1) [nM]	Potency relative to VUAA1 ([1]; ranked by EC50)	Effect on Eugenol-induced channel response [2]	Agonist of MhraOR5 [3]	Effect on DEET-induced channel response [4]
CC(C)c1ccc(NC(=O)CSc2nnc(-c3ccncc3)n2C2CC2)cc1 [VUAA4]	2100	greater potency	–	–	–
C=CCc1ccc(O)c(OC)c1 [Eugenol, eugenol]	–	–	I	agonists	–
CCN(CC)C(=O)c1cccc(C)c1 [DEET]	–	–	–	agonists	I
